Experimental data published in patent US20260184663A1, “INDENE COMPOUNDS, PHARMACEUTICAL COMPOSITIONS THEREOF, AND THEIR THERAPEUTIC APPLICATIONS” (NucMito Pharmaceuticals co. Ltd., priority 2022, published 2026).
Like-named read-outs stand apart in the source and are kept apart here.

Assays:
Format in all cases: cell-based
SW480 (colon cancer) = experiment: Antiproliferative activity (CCK-8 cell viability), SW480; conditions: Homo sapiens, 72 h, read-out: Antiproliferative activity in cancerous cells, SW480 (inhibition of cell growth); for inhibition at 3.3 µM: Compound concentration: 3.3 μM; for inhibition at 10 µM: Compound concentration: 10 μM
Outline: (§1)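 Cells were seeded at 2,000-5,000/well (HeLa in MEM, HepG2 and SW480 in DMEM, A549 in F-12K, all with 10% FBS) and treated with compound at 3.3, 10 or 30 μM for 72 h at 37° C. CCK-8 was added for 4 h, absorbance was read at 450 nm, and viability was expressed relative to DMSO-treated wells.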

[1] = tested on: A431 (epidermoid carcinoma); experiment: Antiproliferative activity (CCK-8 cell viability), A431; conditions: Homo sapiens, 72 h, read-out: Antiproliferative activity in cancerous cells, A431 (inhibition of cell growth); for inhibition at 3.3 µM: A-431, Compound concentration: 3.3 μM; for inhibition at 10 µM: A-431, Compound concentration: 10 μM
Outline: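 Cell viability of compound-treated A431 cells was measured with a Cell Counting Kit-8. Each well received 10 μL of CCK-8 after 72 h of compound exposure, followed by 4 h incubation at 37° C. and a 450 nm plate-reader measurement. Percent viability was calculated relative to DMSO controls across replicates.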

[2] = tested on: A549 (lung adenocarcinoma); experiment: Antiproliferative activity (CCK-8 cell viability), A549; conditions: Homo sapiens, 72 h; for inhibition at 3.3 µM: Compound concentration: 3.3 μM; for inhibition at 10 µM: Compound concentration: 10 μM; for inhibition at 30 µM: Compound concentration: 30 μM
Outline: as §1

HepG2 (liver cancer) = experiment: Antiproliferative activity (CCK-8 cell viability), HepG2; conditions: Homo sapiens, 72 h, read-out: Antiproliferative activity in cancerous cells, HepG2 (inhibition of cell growth); for inhibition at 3.3 µM: Compound concentration: 3.3 μM; for inhibition at 10 µM: Compound concentration: 10 μM
Outline: as §1

HeLa (cervical cancer) = experiment: Antiproliferative activity (CCK-8 cell viability), HeLa; conditions: Homo sapiens, 72 h; for inhibition at 3.3 µM: Compound concentration: 3.3 μM; for inhibition at 10 µM: Compound concentration: 10 μM; for inhibition at 30 µM: Compound concentration: 30 μM
Outline: as §1

[3] = tested on: MDA-MB-231 (breast cancer); experiment: Antiproliferative activity (CCK-8 cell viability), MDA-MB-231; conditions: Homo sapiens, 72 h, read-out: Antiproliferative activity in cancerous cells, MDA-MB-231 (inhibition of cell growth); for inhibition at 3.3 µM: Compound concentration: 3.3 μM; for inhibition at 10 µM: Compound concentration: 10 μM
Outline: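 In this CCK-8 viability assay, MDA-MB-231 cells maintained in Dulbecco's modified Eagle's medium containing 10% fetal bovine serum were placed in 96-well plates (2,000-5,000 cells/well) and treated with compound for 72 h at 37° C. A 4 h incubation with 10 μL CCK-8 followed, plates were read at 450 nm, and viability was expressed against DMSO vehicle wells across replicates.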

[4] = tested on: alpha-smooth muscle actin (α-SMA); experiment: Inhibition of TGF-β induced expression of alpha-smooth muscle actin (α-SMA) in CFSC cells (western blot); conditions: compound at 10 μM, TGF-β (10 ng/mL), 24 hours, band intensity vs TGF-β only
Outline: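 Values are percent reduction of α-SMA band intensity relative to cells given TGF-β alone, quantified by Western blot densitometry with β-actin probed. Compound was applied at 10 μM alongside 10 ng/mL TGF-β to serum-free CFSC cultures for 24 h at 37 °C.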

[5] = tested on: B16F10 (malignant melanoma); experiment: Antiproliferative activity (CCK-8 cell viability), B16F10; conditions: Mus musculus, 72 h, read-out: Antiproliferative activity in cancerous cells, B16F10 (inhibition of cell growth); for inhibition at 3.3 µM: B16-F10, Compound concentration: 3.3 μM; for inhibition at 10 µM: B16-F10, Compound concentration: 10 μM
Outline: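 Attached B16F10 cells in 96-well plates were incubated with compound at 37° C for 72 h, followed by 10 μL CCK-8 reagent per well and a further 4 h incubation. A multi-well plate reader measured absorbance at 450 nm. Percent viability across replicates was calculated against DMSO vehicle-treated cells.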

[6] = read-out: Antiproliferative activity in cancerous cells, A549 (inhibition of cell growth)
[7] = read-out: Antiproliferative activity in cancerous cells, HELA (inhibition of cell growth)

| Structure (SMILES) | inhibition at 3.3 µM (SW480 (colon cancer)) [%] | inhibition at 10 µM (SW480 (colon cancer)) [%] | inhibition at 3.3 µM [1] [%] | inhibition at 10 µM [1] [%] | inhibition at 3.3 µM [2, 6] [%] | inhibition at 10 µM [2, 6] [%] | inhibition at 3.3 µM (HepG2 (liver cancer)) [%] | inhibition at 10 µM (HepG2 (liver cancer)) [%] | inhibition at 3.3 µM (HeLa (cervical cancer); [7]) [%] | inhibition at 10 µM (HeLa (cervical cancer); [7]) [%] | inhibition at 3.3 µM [3] [%] | inhibition at 10 µM [3] [%] | inhibition at 10 µM [4] [%] | inhibition at 3.3 µM [5] [%] | inhibition at 10 µM [5] [%] | also measured |
| --- | --- | --- | --- | --- | --- | --- | --- | --- | --- | --- | --- | --- | --- | --- | --- | --- |
| CC1=C(CC(=O)O)c2ccc(F)c(F)c2/C1=C/c1ccc(Oc2ccc(F)cc2)cc1 [E3, (E)-2-(6,7-Difluoro-1-(4-(4-fluorophenoxy)benzylidene)-2-methyl-1H-inden-3-yl)acetic acid] | 30 to 50 | ≥ 50 | ≥ 50 | ≥ 50 | 30 to 50 | ≥ 50 | ≥ 50 | ≥ 50 | ≥ 50 | ≥ 50 | ≥ 50 | ≥ 50 | > 80 | 30 to 50 | ≥ 50 | inhibition at 30 µM (SW480 (colon cancer); Compound concentration: 30 μM): ≥ 50%; inhibition at 30 µM ([1]; A-431, Compound concentration: 30 μM): ≥ 50%; inhibition at 30 µM [2, 6]: ≥ 50%; inhibition at 30 µM (HepG2 (liver cancer); Compound concentration: 30 μM): ≥ 50%; inhibition at 30 µM (HeLa (cervical cancer); [7]): ≥ 50%; inhibition at 30 µM ([3]; Compound concentration: 30 μM): ≥ 50%; inhibition at 30 µM ([5]; B16-F10, Compound concentration: 30 μM): ≥ 50% |
| CC1=C(C(C)C(=O)O)c2ccccc2/C1=C\c1ccc(Oc2ccc(F)cc2)cc1 (stereo not drawn) [C29, (Z)-2-(1-(4-(4-Fluorophenoxy)benzylidene)-2-methyl-1H-inden-3-yl)propanoic acid] | 30 to 50 | 30 to 50 | < 30 | ≥ 50 | < 30 | 30 to 50 | < 30 | ≥ 50 | ≥ 50 | ≥ 50 | 30 to 50 | ≥ 50 | 50 to 80 | 30 to 50 | ≥ 50 |  |
| CC1=C(CC(=O)O)c2ccc(F)cc2/C1=C\c1ccc(COc2ccccc2)cc1 [B1, (Z)-2-(6-Fluoro-2-methyl-1-(4-(phenoxymethyl)benzylidene)-1H-inden-3-yl)-acetic acid] | ≥ 50 | ≥ 50 | 30 to 50 | 30 to 50 | < 30 | < 30 | < 30 | ≥ 50 | < 30 | < 30 | < 30 | ≥ 50 | < 30 | ≥ 50 | ≥ 50 | inhibition at 30 µM ([2]; read-out: Antiproliferative activity in cancerous cells, A549): 30 to 50%; inhibition at 30 µM (HeLa (cervical cancer); read-out: Antiproliferative activity in cancerous cells, HELA): 30 to 50% |
